Tests used:
[1] = Tested for the ability to inhibit maximum contraction obtained in the presence of [b-Ala8] NKA(4-10) in isolated guinea pig trachea
[2] = biological target: T1, Substance-K receptor (Cavia porcellus) (UniProt Q64077); experiment: Antagonistic activity against Tachykinin receptor 2 binding to [b-Ala8] NKA(4-10) in isolated guinea pig trachea
T1 sequence (whole entry): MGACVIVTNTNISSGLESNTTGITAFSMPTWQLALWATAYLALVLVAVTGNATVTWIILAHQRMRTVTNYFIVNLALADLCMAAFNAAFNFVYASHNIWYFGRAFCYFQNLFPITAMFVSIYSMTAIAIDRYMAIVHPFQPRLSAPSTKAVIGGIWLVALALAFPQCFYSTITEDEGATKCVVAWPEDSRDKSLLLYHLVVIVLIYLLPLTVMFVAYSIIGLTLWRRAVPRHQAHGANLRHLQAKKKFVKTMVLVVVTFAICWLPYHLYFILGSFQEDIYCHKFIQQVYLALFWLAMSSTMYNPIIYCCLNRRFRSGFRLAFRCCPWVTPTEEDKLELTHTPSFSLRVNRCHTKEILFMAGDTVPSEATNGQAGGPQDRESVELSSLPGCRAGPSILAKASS

Substance-K receptor = biological target: T2, Substance-K receptor (Bos taurus, UniProt P05363); experiment: Binding affinity against bovine Tachykinin receptor 2
T2 sequence (P05363 whole entry): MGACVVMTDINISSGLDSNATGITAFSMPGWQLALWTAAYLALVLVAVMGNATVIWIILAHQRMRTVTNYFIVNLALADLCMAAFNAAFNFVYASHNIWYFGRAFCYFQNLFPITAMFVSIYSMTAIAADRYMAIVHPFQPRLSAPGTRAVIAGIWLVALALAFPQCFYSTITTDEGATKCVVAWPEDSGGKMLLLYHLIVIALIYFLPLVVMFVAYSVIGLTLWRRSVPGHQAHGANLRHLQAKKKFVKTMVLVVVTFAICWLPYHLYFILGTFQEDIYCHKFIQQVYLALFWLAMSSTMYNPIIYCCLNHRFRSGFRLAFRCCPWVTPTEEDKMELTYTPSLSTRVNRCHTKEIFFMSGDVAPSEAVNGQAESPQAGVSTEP

pKb [2]	Ki (Substance-K receptor)	SMILES	Response [1]
9.4	–	CN(C[C@H](CCN1CCC(O)(c2ccccc2)CC1)c1ccc(Cl)c(Cl)c1)C(=O)c1cccc(N)c1	97.4%
8.55	–	CN(C[C@H](CCN1CCC(O)(c2ccccc2)CC1)c1ccc(Cl)c(Cl)c1)C(=O)c1ccc([N+](=O)[O-])cc1	98%
< 8	–	CN(C[C@H](CCN1CCC(O)(c2ccccc2)CC1)c1ccc(Cl)c(Cl)c1)C(=O)c1ccc(N=C=S)cc1	97.6%
8.3	–	CN(C[C@H](CCN1CCC(O)(c2ccccc2)CC1)c1ccc(Cl)c(Cl)c1)C(=O)c1ccc(NC(=O)CBr)cc1	96%
< 8	–	CN(C[C@H](CCN1CCC(O)(c2ccccc2)CC1)c1ccc(Cl)c(Cl)c1)C(=O)c1cccc([N+](=O)[O-])c1	98.6%
9.4	–	CN(C[C@H](CCN1CCC(O)(c2ccccc2)CC1)c1ccc(Cl)c(Cl)c1)C(=O)c1ccccc1N	98.2%
–	1 nM	CN(CC(CCN1CCC(O)(c2ccccc2)CC1)c1ccc(Cl)c(Cl)c1)C(=O)c1ccccc1 (stereo unspecified)	–
8.4	–	CC(=O)Nc1ccc(C(=O)N(C)C[C@H](CCN2CCC(O)(c3ccccc3)CC2)c2ccc(Cl)c(Cl)c2)cc1	96.6%
9.7	–	CN(C[C@H](CCN1CCC(O)(c2ccccc2)CC1)c1ccc(Cl)c(Cl)c1)C(=O)c1ccc(F)cc1	94.7%
9.1	–	CN(C[C@H](CCN1CCC(O)(c2ccccc2)CC1)c1ccc(Cl)c(Cl)c1)C(=O)c1ccc(N)cc1	95.9%

The remaining lines, values behind:

SMILES	pKb [2]	Ki (Substance-K receptor)	Response [1]
CN(C[C@H](CCN1CCC(O)(c2ccccc2)CC1)c1ccc(Cl)c(Cl)c1)C(=O)c1ccccc1	–	–	93.3%
CN(C[C@H](CCN1CCC(O)(c2ccccc2)CC1)c1ccc(Cl)c(Cl)c1)C(=O)c1cccc(NC(=O)CBr)c1	< 8	–	98%
CN(C[C@H](CCN1CCC(O)(c2ccccc2)CC1)c1ccc(Cl)c(Cl)c1)C(=O)c1ccccc1NC(=O)CBr	< 8	–	97.1%
CC(=O)NC1(c2ccccc2)CCN(CCC(CN(C)C(=O)c2ccccc2)c2ccc(Cl)c(Cl)c2)CC1 (single isomer, unassigned) [SAREDUTANT]	9.1	0.5 nM	–
CN(C[C@H](CCN1CCC(O)(c2ccccc2)CC1)c1ccc(Cl)c(Cl)c1)C(=O)c1ccccc1N=C=S	8.5	–	95.5%
CC(=O)Nc1cccc(C(=O)N(C)C[C@H](CCN2CCC(O)(c3ccccc3)CC2)c2ccc(Cl)c(Cl)c2)c1	< 8	–	96.3%
CC(=O)Nc1ccccc1C(=O)N(C)C[C@H](CCN1CCC(O)(c2ccccc2)CC1)c1ccc(Cl)c(Cl)c1	< 8	–	98.3%
CN(C[C@H](CCN1CCC(O)(c2ccccc2)CC1)c1ccc(Cl)c(Cl)c1)C(=O)c1cccc(N=C=S)c1	< 8	–	95.8%
CN(C[C@H](CCN1CCC(O)(c2ccccc2)CC1)c1ccc(Cl)c(Cl)c1)C(=O)c1ccccc1[N+](=O)[O-]	8.5	–	92.7%

Reference: ChEMBL document CHEMBL1137857, “Design and synthesis of substituted N-methylbenzamide analogues derived from SR 48,968 as neurokinin-2 receptor antagonists” (Bioorg Med Chem Lett, 2004)
